The values that follow come from patent US8835500B2, “Pharmaceutical formulations of amyloid inhibiting compounds” (BHI Limited Partership, priority 2003, dated 2014).

The structures appear in SMILES notation.

The nature of data set [1]: Hygroscopic nature of the active ingredient. It is filed as physicochemical.
The nature of data set [2]: Single oral dose pharmacokinetics of NC-758-1 in healthy elderly volunteers (Example 9). It counts as in vivo, human. Particulars: elderly (≧55 years) male and female subjects, fasted; for Tmax: median. The text has this:
(§1) In the following examples and elsewhere herein, terms are as defined below. The pharmacokinetic parameters were derived by non-compartmental analysis using WinNonlin Version 2.1. • Cmax—the maximum observed plasma concentration. • Tmax—the time of occurrence of Cmax. • AUC0-t—the area under the plasma concentration versus time curve from time zero to the last sampling time at which concentrations were at or above the limit of quantification, calculated by the linear trapezoidal rule. • AUC∞—the area under the plasma concentrations versus time curve from time zero to infinity, calculated from AUC0-t+(Clast/λz), where Clast is the last observed quantifiable concentration and λz is the apparent terminal rate constant. • t1/2—the apparent terminal half-life, calculated from 1n 2λz.
The pharmacokinetic profile and the effect of food on single oral doses of 3-APS free acid (modified-release enteric-coated tablet as described in Table 5 above, hereinafter “NC-758-1”) in healthy male and female elderly (≧55 years) volunteers. The test was an open label, three-period crossover study to assess the pharmacokinetic profile of 3 single oral doses of NC-758-1 in healthy elderly (≧55 years) male and female subjects. The blood samples were collected during 24 h following dosing. Plasma concentrations of 3-APS were determined using a validated LC-MS/MS method.

Data set [3] is described as follows: Single rising oral dose pharmacokinetics of NC-758 in healthy young and elderly male volunteers (Example 7). It counts as in vivo, human. Conditions: for Tmax: median.
Source text: as §1
The pharmacokinetic profile and the effect of food on single rising oral doses of 3-APS free acid (modified-release enteric-coated tablet, as described in Table 3 above, hereinafter “NC-758”) in healthy male young (18-45 years) volunteers was determined. The pharmacokinetics of a single oral dose of NC-758 was also determined in a group of healthy male elderly (≧55 years old) volunteers. The test was a randomized, double-blind, placebo-controlled study to assess the pharmacokinetic profile of 4 single rising oral doses of NC-758 in healthy young (18-45 years) male subjects. Blood samples were collected during 24 h following dosing. Plasma concentrations of 3-APS were determined using a validated LC-MS/MS method.

In a further data set the test system is CSF Aβ42. Kind of data set: CSF Aβ42 and Aβ42/Aβ40 ratio in mild-to-moderate AD patients. It is filed as in vivo, human. How it is done:
FIG. 1 Change from Baseline CSF Aβ42 versus 3-APS doses
FIG. 2 Effect of 3-APS on CSF Aβ42/40 Ratio in Mild-to-Moderate AD Patients—Placebo vs. 150 mg BID

The nature of data set [4]: Part I: multiple rising oral dose pharmacokinetics of NC-758 in healthy young and elderly subjects (Example 8). It counts as in vivo, human. Particulars: fasted; for Tmax: median.
Source text: as §1
The pharmacokinetic profile of multiple rising oral doses of 3-APS free acid (NC-758 of Table 3 above) in healthy male young subjects (18-45 years) and healthy male and female elderly (≧55 years) subjects was assessed. The pharmacokinetic profile of a titrated multiple oral rising dose regimen of NC-758 was also assessed in one group of healthy male young (18-45 years) subjects. […] Part I was a randomized, double-blind, placebo-controlled study to assess the pharmacokinetic profile of 2 multiple rising oral doses of NC-758 in healthy young (18-45 years) male subjects. […] In Part I, blood samples were collected through 24 h after the first dose on Day 1, before each morning dose on Days 2 to 11, and through 48 h after the final dose on Day 12. For Part II, blood samples were collected through 36 and 48 h, respectively. Plasma concentrations of 3-APS were determined using a validated LC-MS/MS method.

Data set [5] can be described thus: Pharmacokinetics of NC-758-1 in mild to moderate Alzheimer's Disease patients, 12 weeks BID (Example 10). Particulars: human, plasma, oral, AD patients; for AUC(0-inf): only patients with estimable elimination rate constant; for Tmax: median. It counts as in vivo.
Source text: as §1
A multicenter, randomized, double-blind, placebo-controlled and parallel designed study has been completed with NC-758-1 from Table 5 above in patients suffering from mild to moderate Alzheimer's Disease (AD). This study included assessing the pharmacokinetic/pharmacodynamic profile in AD patients.
A total of fifty-eight (58) mild to moderate AD patients (MMSE scores=13 to 26) were enrolled from 6 centers in the United States. Patients were randomized to receive in 1:1:1:1 ratio of NC-758-1 at 50, […], 150 mg BID or placebo BID for 12 weeks. Study medication was administered orally (tablet). Each patient was evaluated on 6 occasions at screening, baseline [Week 0], weeks 2, 4, 8 and 12. Blood samples were collected from each patient prior to dosing and at specified time points through 12 h post-dose after the first dose (Week 0) and the last dose (Week 12). Blood samples were also collected prior to the first dose of the day during Week 2, 4 and 8 visits.

For data set [6] the following is noted: dog, in vivo. How it is done:
(§2) Furthermore, the non-hygroscopic nature of the acid form makes it desirable as active pharmaceutical ingredient. To further protect against any possible gastrointestinal intolerance that could result from the acid form, the tablets were enteric-coated and a modified-release agent was added to control any rapid release of the drug in the stomach and the intestine, respectively.

The nature of data set [7]: Crossing of the blood/brain barrier. Also noted: species or system human. Particulars: in vivo.
Data set [8] in a line: Pharmacokinetics of NC-758-1 in mild to moderate Alzheimer's Disease patients, 12 weeks BID (Example 10). Particulars: human, plasma, oral, AD patients; for Tmax: median. It is filed as in vivo.
Data set [9] can be described thus: Gastrointestinal symptoms after administration of solid dosage form (capsules). It counts as in vivo. Here is the method:
as §2

Where [10] appears, read: 200 mg dose, elderly vs. young (Tables 9 and 10).
Setting [11] is: 50 mg, Alzhemed (NC-758-1) 50 mg BID, Week 0 (single dose), mean.
Where [12] appears, read: 150 mg, Alzhemed (NC-758-1) 150 mg BID, Week 0 (single dose), mean.

On to `NCCCS(=O)(=O)O` [3-APS, 3-amino-1-propanesulfonic acid], for which the hygroscopic nature result in data set [1] is given as “non-hygroscopic”. The Tmax – broadly, the time from dosing to the highest level – in data set [2] (NC-758-1 single oral 50 mg) came out at 5 h; in data set [2] (NC-758-1 single oral 100 mg), 5 h; in [2] (NC-758-1 single oral 150 mg), 5 h; in data set [3] (NC-758 single oral 200 mg, elderly (>55 years) male subjects, fasted) it was 5 h; in [3] (NC-758 single oral 200 mg, young (18-45 years) male subjects, fasted), 5 h; in data set [3] (NC-758 single oral 300 mg, young (18-45 years) male subjects, fasted), 5 h. Besides, the Tmax was found to be 5 h in [3] (human, plasma, NC-758 single oral 100 mg, young (18-45 years) male subjects, fasted, read-out: Tmax); 6 h in data set [4] (NC-758 200 mg BID, Day 1, elderly (≧55 years) male and female subjects); 4 h in [4] (NC-758 200 mg BID, Day 12, young (18-45 years) male subjects); 5 h in [4] (both sexes, human, plasma, oral, 200 mg, NC-758 200 mg BID, Day 12, elderly (≧55 years) male and female subjects, read-out: Tmax); 6 h in [4] (male, human, plasma, oral, 100 mg, NC-758 100 mg BID, Day 1, young (18-45 years) male subjects, read-out: Tmax); 2.5 h in [4] (male, human, plasma, oral, 100 mg, NC-758 100 mg BID, Day 12, young (18-45 years) male subjects, read-out: Tmax). Moreover, the time to peak (Tmax) was 4 h in [4] (male, human, plasma, oral, 200 mg, NC-758 200 mg BID, Day 1, young (18-45 years) male subjects, read-out: Tmax); roughly 6 h in [5] (50 mg, Alzhemed (NC-758-1) 50 mg BID, Week 0 (single dose)); roughly 6 h in data set [5] (150 mg, Alzhemed (NC-758-1) 150 mg BID, Week 0 (single dose)); 3 h in data set [8] (50 mg, Alzhemed (NC-758-1) 50 mg BID, Week 12 (repeated)); roughly 4.7 h in data set [8] (100 mg, Alzhemed (NC-758-1) 100 mg BID, Week 0 (single dose)); 3.5 h in [8] (100 mg, Alzhemed (NC-758-1) 100 mg BID, Week 12 (repeated)). Further, in data set [8] (150 mg, Alzhemed (NC-758-1) 150 mg BID, Week 12 (repeated)), the Tmax was 3 h. In addition, the “AUC∞” value in data set [2] (NC-758-1 single oral 150 mg, mean, only subjects with estimable elimination rate constant) was 4.497 µg·h/mL. The “AUC0-t greater in elderly subjects compared to young subjects” value in [3] (setting [10]) is reported as “approximately 70%”. For the same compound, in data set [3] (setting [10]), the “Cmax greater in elderly subjects compared to young subjects” value was “approximately 70%”. The AUC(0-inf) – broadly, the area under the concentration-time curve extrapolated to infinity – in data set [3] (human, plasma, NC-758 single oral 200 mg, elderly (>55 years) male subjects, fasted, calculated for one individual only) was 5.76 µg·h/mL; in data set [5] (setting [11]), roughly 1.4 µg·h/mL; in data set [5] (setting [12]), roughly 3.42 µg·h/mL; in data set [8] (100 mg, Alzhemed (NC-758-1) 100 mg BID, Week 0 (single dose), mean, only patients with estimable elimination rate constant) it was roughly 2.57 µg·h/mL. Further, the “ratio of Aβ42/Aβ40” value in the data set on CSF Aβ42 (CSF, mild-to-moderate AD patients, FIGS. 2, 3 and 4) is listed as “reduced the ratio of Aβ42/Aβ40”. Moreover, the “baseline CSF Aβ42” value in the data set with CSF Aβ42 (FIG. 1) is given as “reduced baseline CSF Aβ42”. The AUC(0-t) in data set [4] (human, plasma, oral, NC-758 100 mg BID, Day 1, young (18-45 years) male subjects, mean, read-out: AUC0-12 h) was 1.33 µg·h/mL; in [5] (setting [11]) it was roughly 1.32 µg·h/mL; in data set [8] (50 mg, Alzhemed (NC-758-1) 50 mg BID, Week 12 (repeated), mean, read-out: AUC0-t (AUCss for Week 12)) it was 1.98 µg·h/mL; in data set [8] (100 mg, Alzhemed (NC-758-1) 100 mg BID, Week 0 (single dose), mean, read-out: AUC0-t), roughly 2.47 µg·h/mL; in [8] (100 mg, Alzhemed (NC-758-1) 100 mg BID, Week 12 (repeated), mean, read-out: AUC0-t (AUCss for Week 12)) it was 2.59 µg·h/mL; in data set [8] (150 mg, Alzhemed (NC-758-1) 150 mg BID, Week 0 (single dose), mean, read-out: AUC0-t) it was roughly 2.79 µg·h/mL. In addition, the AUC(0-t) in data set [8] (150 mg, Alzhemed (NC-758-1) 150 mg BID, Week 12 (repeated), mean, read-out: AUC0-t (AUCss for Week 12)) was found to be 3.57 µg·h/mL. Besides, the highest concentration (Cmax) (commonly the peak of the concentration-time curve) in [5] (setting [11]) is roughly 0.31 µg/mL; in data set [5] (setting [12]) it was roughly 0.624 µg/mL; in data set [5] (150 mg, Alzhemed (NC-758-1) 150 mg BID, Week 12 (repeated), mean), 0.639 µg/mL; in [8] (50 mg, Alzhemed (NC-758-1) 50 mg BID, Week 12 (repeated), mean), 0.451 µg/mL; in data set [8] (100 mg, Alzhemed (NC-758-1) 100 mg BID, Week 0 (single dose), mean), roughly 0.618 µg/mL; in data set [8] (100 mg, Alzhemed (NC-758-1) 100 mg BID, Week 12 (repeated), mean) it was 0.538 µg/mL. For the same compound, in data set [6], the tolerability result is reported as “better tolerated than the sodium salt form”. In addition, the “crossing of the blood/brain barrier” value in [7] was “crossed the blood/brain barrier”.

With `NCCCS(=O)(=O)[O-].[Na+]` [3-amino-1-propanesulfonic acid, sodium salt], the “gastrointestinal symptoms (i.e. nausea and vomiting)” value in data set [9] was “associated with gastrointestinal symptoms”.
